Laboratory results as given in patent US10584129B2, “Substituted 6,7-dihydropyrazolo[1,5-a]pyrazines as negative allosteric modulators of mGluR2 receptors” (Janssen Pharmaceutica NV, priority 2013, dated 2020).

System: Wiga rats
Assay: Reserpine interaction test in rats
Type: in vivo, rat
Conditions: PO, Time 60, reserpine 10 mg/kg SC, -1 h

| Structure (SMILES) | ED50 reversal of reserpine-induced ptosis [mg/kg] |
| --- | --- |
| Cc1cc(-c2cnn3c2C(=O)N(c2ccc(C(F)(F)F)cc2)CC3(C)C)ccn1 [compound 171] | 5 |

Same assay, conditions: Rattus norvegicus, PO, Time 60, reserpine 10 mg/kg SC, -1 h, read-out: ED50 reversal of reserpine-induced ptosis

| Structure (SMILES) | ED50 [mg/kg] |
| --- | --- |
| Cc1cc(-c2cnn3c2C(=O)N(c2ccc(C(F)(F)F)cn2)CC3C)cc(C)n1 (stereo not shown) [compound 194] | 5 |
| Cc1cc(-c2cnn3c2C(=O)N(c2ccc(Cl)cc2C)CC3C)ccn1 (stereo not shown) [compound 172] | 1.26 |
| CNc1cc(-c2cnn3c2C(=O)N(c2ccc(C(F)(F)F)cc2)C[C@@H]3C)ccn1 [compound 147] | 7.94 |
| COc1cc(Cl)ccc1N1CC(C)n2ncc(-c3ccnc(C)c3)c2C1=O (stereo not shown) [compound 161] | 3.15 |
| CCOc1ccc(Cl)c(N2CC(C)n3ncc(-c4ccnc(C)c4)c3C2=O)n1 (stereo not shown) [compound 195] | 1.25 |
| Cc1cc(-c2cnn3c2C(=O)N(c2ccc(Cl)cc2Cl)C[C@@H]3C)ccn1 [compound 167] | 0.1 |
